For eleven compounds, IC50 results are on record in patent EP2738172A1 (Almirall, S.A., priority 2012, dated 2014).

The subject of assay [1] is Jurkat E6-1 cells. The experiment in a line: fluorescent calcium flux assay (FLIPR, thapsigargin store depletion). Format: cell-based. The note with it: Homo sapiens, Thapsigargin 10µM, 2mM final calcium concentration, FLIPR Calcium 5 dye, read-out: Ca^2+ flux IC50. The procedure: fluorescent calcium flux assay
Jurkat E6-1 cells were obtained from ATCC (number TIB-152™) and maintained as ATCC recommend; in medium RPMI-1640 with 10% FBS at 37°C and 5% CO2.
Before the assay, Jurkat cells were grown at a density of 2 millions cells/ml in cell culture media (RPMI with 10% FBS) in a T-175 flask at 37°C and 5% CO2. The day of the assay, cells were harvested by centrifugation (5 minutes at 1500 rpm) and the pellet were suspended in Ca^2+ free assay buffer (HBSS w/o Ca^2+ and Mg^2+, 20mM Hepes and 1 mM MgCl2, pH 7.4) at a density of 5 million cells/ml.
Calcium depletion was initiated by the addition to the cell suspension of Thapsigarguin at a final assay concentration of 10µM. 20µl of the cellular suspension containing Thapsigargin (100.000 cells/well) were plated into 384 well plates (corning 3711) and incubated at RT for 15 minutes.
Test compounds were diluted in DMSO 100% to get a 10^-2M stock solution and serial dilutions 1/3 were performed in the same solvent. Then, 20µl of test compounds, diluted 75 times in Ca^2+ free assay buffer, were added to the cells and incubated at RT for 1h.
Once this incubation was completed, 5 µl of dye solution (FLIPR Calcium 5 Express Kit, Molecular Devices), prepared as Molecular Devices recommend, were added into the assay plates followed by an extra incubation period of 1 hour at room temperature. After the second incubation period, assay plates were placed into the FLIPR Tetra from Molecular Devices. Fluorescence was measured at a wavelength of 525nm after the dye excitation at 485nm. The initial baseline was measured during 20 seconds, and then 8µl of a 13mM Calcium solution in assay buffer were added (2mM final calcium concentration) except for basal wells, where assay buffer without calcium was added. At this time, changes in the cellular fluorescent were measured for an extra 80 seconds.
Peak and base line were taken for the calculation of the ratio (Peak/Base Line). Total, basal and compound well ratio values were used to calculate %Inhibition.

The test system of assay [2] is Jurkat E6-1 cells. The assay can be described thus: In vitro assay of cytokine release from T cells (IL-2 ELISA). Format: cell-based. Particulars: Homo sapiens, Jurkat cells stimulated with PHA 20 µg/ml, 20 hours, secreted IL-2 by ELISA, read-out: Jurkat IL2 IC50. The procedure:
In vitro assay of cytokine release from T cells
Jurkat E6-1 cells were obtained from American Type Culture Collection (ATCC) and maintained in complete medium with 10% fetal bovine serum (FBS) at 37°C/5%CO2. Cells were plated in 100 µL of Dubelcco's Modified Eagle Medium (DMEM) with 1% FBS in a 96 well plate at a density of 1x10^6 cells/well and 50 µL of test compound was added. Cells were then stimulated by the addition of 50 µL of phytohemagglutinin (PHA) (final concentration 20 µg/ml) and incubated at 37°C/5%CO2 for 20 hours. On the following day, the supernatants were collected and assayed for IL-2 levels by ELISA according to the manufacturer's protocols. The IC50 value was calculated as the concentration at which 50% of secreted IL-2 in vehicle is inhibited.

Consider `FC(F)Oc1cc(C(F)(F)F)nn1-c1ccc2[nH]c(C3CCCCC3)cc2n1` [Ex. 30, 2-Cyclohexyl-5-[5-(difluoromethoxy)-3-(trifluoromethyl)-1H-pyrazol-1-yl]-1H-pyrrolo[3,2-b]pyridine], for which the figures for the IC50 with Jurkat E6-1 cells [1] and in the assay on Jurkat E6-1 cells [2] were 360 nM and 110 nM, respectively.

Take `Fc1cccc(Cl)c1-c1cc2cc(-c3cc4c(cc3Cl)OC(F)(F)O4)cnc2[nH]1` [Ex. 13, 5-(6-Chloro-2,2-difluoro-1,3-benzodioxol-5-yl)-2-(2-chloro-6-fluorophenyl)-1H-pyrrolo[2,3-b]pyridine]: the figures for the half-maximal inhibitory concentration (IC50) in the assay with Jurkat E6-1 cells [1] and with Jurkat E6-1 cells [2] were 120 nM and 56 nM, respectively.

As to `Cn1nc(C(F)(F)F)cc1-c1cc2cc(-c3c(F)cccc3Cl)[nH]c2cn1`, the concentration for half-maximal inhibition (IC50) was found to be 640 nM with Jurkat E6-1 cells [1] and 860 nM with Jurkat E6-1 cells [2].

Consider `COc1cc(C)c(-c2cnc3[nH]c(-c4c(F)cccc4Cl)cc3n2)cn1` [Ex. 2, 6-(2-Chloro-6-fluorophenyl)-2-(6-methoxy-4-methylpyridin-3-yl)-5H-pyrrolo[2,3-b]pyrazine], for which the concentration for half-maximal inhibition (IC50) in the assay with Jurkat E6-1 cells [1] worked out at 357 nM; in the assay on Jurkat E6-1 cells [2] it was 100 nM.

On to `CNS(=O)(=O)c1ccc(-c2cnc3[nH]c(-c4c(F)cccc4Cl)cc3n2)c(C)c1` [Ex. 69, 4-(6-(2-Chloro-6-fluorophenyl)-5H-pyrrolo[2,3-b]pyrazin-2-yl)-N,3-dimethylbenzenesulfonamide], for which the IC50 amounted to 580 nM with Jurkat E6-1 cells [1] and 114 nM in the assay with Jurkat E6-1 cells [2].

In the case of `Cc1cc(S(=O)(=O)N(C)C)ccc1-c1cnc2[nH]c(-c3c(F)cccc3Cl)cc2n1` [Ex. 8, 4-[6-(2-chloro-6-fluorophenyl)-5H-pyrrolo[2,3-b]pyrazin-2-yl]-N,N,3-trimethylbenzenesulfonamide], the IC50 was found to be 800 nM in the assay on Jurkat E6-1 cells [1] and 41 nM in the assay with Jurkat E6-1 cells [2].

`Cn1nc(C(F)(F)F)cc1-c1ccc2[nH]c(-c3c(F)cccc3Cl)cc2n1` [Ex. 14, 2-(2-Chloro-6-fluorophenyl)-5-[1-methyl-3-(trifluoromethyl)-1H-pyrazol-5-yl]-1H-pyrrolo[3,2-b]pyridine]: the results for the IC50 in the assay on Jurkat E6-1 cells [1] and with Jurkat E6-1 cells [2] were 53 nM and 36 nM, respectively.

In the case of `Cn1nc(C(F)(F)F)cc1-c1ccc2[nH]c(C3CCCCC3)cc2n1` [Ex. 16, 2-Cyclohexyl-5-[1-methyl-3-(trifluoromethyl)-1H-pyrazol-5-yl]-1H-pyrrolo[3,2-b]pyridine], the half-inhibitory concentration (IC50) in the assay with Jurkat E6-1 cells [1] turned out to be 390 nM; with Jurkat E6-1 cells [2], 130 nM.

Regarding `COc1cc(C)c(-c2cnc3[nH]c(-c4c(F)cc(OCCCO)cc4F)cc3c2)cn1` [Ex. 9, 3-{3,5-difluoro-4-[5-(6-methoxy-4-methylpyridin-3-yl)-1H-pyrrolo[2,3-b]pyridin-2-yl]phenoxy}propan-1-ol], the figures for the IC50 in the assay on Jurkat E6-1 cells [1] and in the assay on Jurkat E6-1 cells [2] were 370 nM and 210 nM, respectively.

On to `COc1cc(C)c(-c2cnc3[nH]c(-c4c(F)cccc4Cl)cc3c2)cn1` [Ex. 1, 2-(2-Chloro-6-fluorophenyl)-5-(6-methoxy-4-methylpyridin-3-yl)-1H-pyrrolo[2,3-b]pyridine], for which the values for the IC50 with Jurkat E6-1 cells [1] and with Jurkat E6-1 cells [2] were 71 nM and 40 nM, respectively.

In the case of `Cc1nc2cc(Cl)c(-c3cnc4[nH]c(-c5c(F)cccc5Cl)cc4c3)cc2o1` [Ex. 73, 5-Chloro-6-(2-(2-chloro-6-fluorophenyl)-1H-pyrrolo[2,3-b]pyridin-5-yl)-2-methylbenzo[d]oxazole], the 50% inhibitory concentration (IC50) in the assay on Jurkat E6-1 cells [1] stood at 88 nM; in the assay with Jurkat E6-1 cells [2], 117 nM.
